This is an account of results in patent publication US9920049B2 (priority 2014, dated 2018).

Each structure is given as a SMILES string.

In the assay the test system is HBsAg. The assay can be described thus: HBsAg assay (CLIA of secreted HBsAg in HepG2.2.15 culture supernatant). The class given is cell-based, HBV. To be noted: Hepatitis B virus. The procedure:
HepG2.2.15 cells (Acs et al. Proc Natl Acad Sci USA, 84, (1987), 4641-4), a constitutively HBV-expressing cell line were cultured in DMEM+Glutamax-I medium (Invitrogen, Carlsbad, Calif., USA), supplemented with 10% fetal bovine serum (Invitrogen) and G418 (Invitrogen) at a final concentration of 200 mg/L and maintained in 5% CO2 at 37° C.
HepG2.2.15 cells were seeded in duplicate into white, 96-well plates at 1.5×10^4 cells/well. The cells were treated with a three-fold serial dilution series of the compounds in DMSO. The final DMSO concentration in all wells was 1% and DMSO was used as no drug control.
The HBsAg chemiluminescence immunoassay (CLIA) kit (Autobio Diagnostics Co., Zhengzhou, China, Catalog number: CL0310-2) was used to measure the levels of secreted HBV antigens semi-quantitatively. For the detection 50 μL/well culture supernatant was used and HBsAg was quantified using HBsAg chemiluminescence immunoassay (CLIA) kit (Autobio Diagnostics Co., Zhengzhou, China, Catalog number: CL0310-2), 50 μl of the supernatant was transferred to the CLIA assay plate and 50 μL of enzyme conjugate reagent was added into each well. The plates were sealed and gently agitated for 1 hour at room temperature. The supernatant-enzyme-mixture was discarded and wells were washed 6 times with 300 μL of PBS. The residual liquid was removed by plating the CLIA plate right side down on absorbent tissue paper. 25 μL of substrates A and B were added to each well. Luminance was measured using a luminometer (Mithras LB 940 Multimode Microplate Reader) after 10 minutes incubation. Dose-response curves were generated and the IC50 value was extrapolated by using the E-WorkBook Suite (ID Business Solutions Ltd., Guildford, UK).
The compounds of the present invention were tested for their capacity to inhibit HBsAg as described herein.

The term IC50 denotes the concentration that gives 50% inhibition. Higher therefore signals weaker potency. Turning to `CCC1Cc2cc(OCCCOC)c(OC)cc2-c2cc(=O)c(C(=O)Nc3nnn[nH]3)cn21` (stereo not drawn) [Example 14, 6-ethyl-10-methoxy-9-(3-methoxypropoxy)-2-oxo-N-(1H-tetrazol-5-yl)-6,7-dihydrobenzo[a]quinolizine-3-carboxamide], the half-inhibitory concentration (IC50) turned out to be 1.1 µM. That is a single-digit micromolar value.

Consider `CCC1Cc2cc(OCc3ccccc3)c(OC)cc2-c2cc(=O)c(C(=O)NC(C)CO)cn21` (stereo not drawn) [Example 7, 9-benzyloxy-6-ethyl-N-(2-hydroxy-1-methyl-ethyl)-10-methoxy-2-oxo-6,7-dihydrobenzo[a]quinolizine-3-carboxamide], for which inhibition was half-maximal at 7.8 µM (IC50).

Compound `CCCNC(=O)c1cn2c(cc1=O)-c1cc(OC)c(OCc3ccccc3)cc1CC2CC` (stereo not drawn) [Example 5, 9-benzyloxy-6-ethyl-10-methoxy-2-oxo-N-propyl-6,7-dihydrobenzo[a]quinolizine-3-carboxamide] registered a half-maximal inhibitory concentration (IC50) of 5.6 µM. This IC50 and that of the compound before are within 1.5-fold of each other.

Take `CCC1Cc2cc(OCc3ccccc3)c(OC)cc2-c2cc(=O)c(C(=O)NC(C)CN(C)C)cn21` (stereo not drawn) [Example 11, 9-benzyloxy-N-[2-(dimethylamino)-1-methyl-ethyl]-6-ethyl-10-methoxy-2-oxo-6,7-dihydrobenzo[a]quinolizine-3-carboxamide]: the midpoint of inhibition, the IC50, lay at 23.9 µM.

`COCCOc1cc(Cl)c2c(c1)CC(C(C)C)n1cc(C(=O)Nc3nnn[nH]3)c(=O)cc1-2` (stereo not drawn) [Example 34, 11-chloro-6-isopropyl-9-(2-methoxyethoxy)-2-oxo-N-(1H-tetrazol-5-yl)-6,7-dihydrobenzo[a]quinolizine-3-carboxamide] displayed a 50% inhibitory concentration (IC50) of 18.3 µM.

As for `CCC1Cc2cc(OCc3ccccc3)c(OC)cc2-c2cc(=O)c(C(=O)NCCN(C)C)cn21` (stereo not drawn) [Example 8], the IC50 came out at 33.7 µM.
